Assays:
[1] = system: Hepatocyte; assay: (§1) Hepatic clearance in human hepatocytes in absence of fetal calf serum; settings: hepatocytes
[2] = as §1

| Structure (SMILES) | logCL [1] | CLhep predicted ([2]; human hepatocytes) | CLhep predicted ([2]; hepatocytes) | CL [1] |
| --- | --- | --- | --- | --- |
| CCCc1nn(C)c2c(=O)[nH]c(-c3cc(S(=O)(=O)N4CCN(C)CC4)ccc3OCC)nc12 | 0.7782 |  |  |  |
| O=C1CC2(CCCC2)CC(=O)N1CCCCN1CCN(c2ncccn2)CC1 [BUSPIRONE] | 1.2833 | 19.2 mL/min/kg |  |  |
| Cn1c(=O)c2c(ncn2C)n(C)c1=O [CAFFEINE] | 0.1461 | 1.4 mL/min/kg |  |  |
| COc1ccccc1OCCNCC(O)COc1cccc2[nH]c3ccccc3c12 (stereo unspecified) [CARVEDILOL] | 0.9395 |  | 8.7 mL/min/kg |  |
| CN(C)CCCN1c2ccccc2Sc2ccc(Cl)cc21 [CHLORPROMAZINE] | 0.9345 |  |  | 8.6 mL/min/kg |
| CN1C(=O)CN=C(c2ccccc2)c2cc(Cl)ccc21 [DIAZEPAM] | -0.3665 |  |  |  |
| O=C(O)Cc1ccccc1Nc1c(Cl)cccc1Cl [DICLOFENAC] | 0.8651 |  | 7.33 mL/min/kg |  |
| O=C(O)c1cc(-c2ccc(F)cc2F)ccc1O [DIFLUNISAL] | -0.7447 |  | 0.18 mL/min/kg |  |
| COc1ccc([C@@H]2Sc3ccccc3N(CCN(C)C)C(=O)[C@@H]2OC(C)=O)cc1 [DILTIAZEM] | 1.1072 | 12.8 mL/min/kg |  |  |
| CCc1cccc2c3c([nH]c12)C(CC)(CC(=O)O)OCC3 (stereo unspecified) [ETODOLAC] | 0.1173 | 1.31 mL/min/kg |  |  |
| CC(C(=O)O)c1cccc(Oc2ccccc2)c1 (stereo unspecified) [FENOPROFEN] | 0.2279 |  |  |  |
| Cc1ccc(C)c(OCCCC(C)(C)C(=O)O)c1 [GEMFIBROZIL] | 0.49 |  | 3.09 mL/min/kg |  |
| CN1C2CCCC1CC(NC(=O)c1nn(C)c3ccccc13)C2 (stereo unspecified) [GRANISETRON] | 1.0414 | 11 mL/min/kg |  |  |
| COc1ccc2c(c1)c(CC(=O)O)c(C)n2C(=O)c1ccc(Cl)cc1 [INDOMETHACIN] | 0.3502 | 2.24 mL/min/kg |  |  |
| CCCCC1=NC2(CCCC2)C(=O)N1Cc1ccc(-c2ccccc2-c2nnn[nH]2)cc1 [IRBESARTAN] | 0.5855 |  |  | 3.85 mL/min/kg |
| CCN(CC)CC(=O)Nc1c(C)cccc1C [LIDOCAINE] | 1.1761 |  |  |  |
| O=C1Nc2ccc(Cl)cc2C(c2ccccc2Cl)=NC1O (stereo unspecified) [LORAZEPAM] | 0.0414 | 1.1 mL/min/kg |  |  |

| Structure (SMILES) | logCL [1] | CLhep predicted ([2]; human hepatocytes) | CLhep predicted ([2]; hepatocytes) | CL [1] |
| --- | --- | --- | --- | --- |
| C[C@H]1C[C@@H]2[C@H]([C@@H](O)C[C@@]3(C)[C@H]2CC[C@]3(O)C(=O)CO)[C@@]2(C)C=CC(=O)C=C12 [METHYLPREDNISOLONE] | 0.8751 | 7.5 mL/min/kg |  |  |
| COCCc1ccc(OCC(O)CNC(C)C)cc1 (stereo unspecified) [METOPROLOL] | 1.0846 | 12.2 mL/min/kg |  |  |
| Cc1ncc2n1-c1ccc(Cl)cc1C(c1ccccc1F)=NC2 [MIDAZOLAM] | 0.8195 |  | 6.6 mL/min/kg |  |
| CC(C)(O)c1ccccc1CC[C@@H](SCC1(CC(=O)O)CC1)c1cccc(/C=C/c2ccc3ccc(Cl)cc3n2)c1 [MONTELUKAST] | 0.1038 | 1.27 mL/min/kg |  |  |
| C=CCN1CC[C@]23c4c5ccc(O)c4O[C@H]2C(=O)CC[C@@]3(O)[C@H]1C5 [NALOXONE] | 1.29 | 19.5 mL/min/kg |  |  |
| Cc1nccn1CC1CCc2c(c3ccccc3n2C)C1=O (stereo unspecified) [ONDANSETRON] | 0.7709 | 5.9 mL/min/kg |  |  |
| CCOc1ccc(NC(C)=O)cc1 [PHENACETIN] | 1.2833 |  |  |  |
| C[C@]12C=CC(=O)C=C1CC[C@@H]1[C@@H]2[C@@H](O)C[C@@]2(C)[C@H]1CC[C@]2(O)C(=O)CO [PREDNISOLONE] | 0.9395 | 8.7 mL/min/kg |  |  |
| CC(C)c1nc(CN(C)C(=O)N[C@H](C(=O)N[C@@H](Cc2ccccc2)C[C@H](O)[C@H](Cc2ccccc2)NC(=O)OCc2cncs2)C(C)C)cs1 [RITONAVIR] | 0.0792 | 1.2 mL/min/kg |  |  |
| CN1C(C(=O)Nc2ccccn2)=C(O)c2sccc2S1(=O)=O [TENOXICAM] | -1.1367 |  | 0.073 mL/min/kg |  |
| Cn1c(=O)c2[nH]cnc2n(C)c1=O.O [THEOPHYLLINE] | -0.1871 | 0.65 mL/min/kg |  |  |
| CC(C)(C)NC[C@H](O)COc1nsnc1N1CCOCC1 [TIMOLOL] | 0.9624 |  | 9.17 mL/min/kg |  |
| CCCCNC(=O)NS(=O)(=O)c1ccc(C)cc1 [TOLBUTAMIDE] | -0.5229 |  | 0.3 mL/min/kg |  |
| Cc1c(C)c2c(c(C)c1O)CCC(C)(COc1ccc(CC3SC(=O)NC3=O)cc1)O2 (stereo unspecified) [TROGLITAZONE] | 0.9542 | 9 mL/min/kg |  |  |
| CC(=O)CC(c1ccccc1)c1c(O)c2ccccc2oc1=O (stereo unspecified) [WARFARIN] | -0.7959 | 0.16 mL/min/kg |  |  |
| Cc1cn([C@H]2C[C@H](N=[N+]=[N-])[C@@H](CO)O2)c(=O)[nH]c1=O [ZIDOVUDINE] | 1.0934 | 12.4 mL/min/kg |  |  |
